± gives the expanded uncertainty stated by the source.
Settings: 298.15 K; for viscosity / mass density: 100 kPa, Liquid; for viscosity: Capillary tube (Ostwald / Ubbelohde) method; for mass density: Vibrating tube method
[1] = Kruss K11 tensiometer with Wilhelmy plate

Row | viscosity [mPa·s] | surface tension liquid-gas (Kruss K11 tensiometer and Wilhelmy plate) [mN/m] | Structure (SMILES) | surface tension liquid-gas [1] [mN/m] | mass density [kg/m3]
1 | 1.359 ± 0.015 |  | CCCCCCCCCCCC [dodecane] | 24.9 ± 0.2 | 745.23 ± 0.14
2 | 0.899 ± 0.01 | 72 ± 0.2 | O [water] |  | 

Row | Structure (SMILES) | viscosity [mPa·s] | surface tension liquid-gas (Kruss K11 tensiometer and Wilhelmy plate) [mN/m] | surface tension liquid-gas [1] [mN/m] | mass density [kg/m3]
3 | CCCCCCCCCCCCCC[P+](CCCCCC)(CCCCCC)CCCCCC.N#C[N-]C#N [tetradecyl(trihexyl)phosphonium dicyanamide] | 437.8 ± 17 |  | 33.1 ± 0.4 | 897.36 ± 0.72

From the NIST ThermoML archive (doi:10.1016/j.fluid.2015.07.022)
